Assay results reported in patent USRE39591E1, “6-O-substituted ketolides having antibacterial activity” (Abbott Laboratories, priority 1996, dated 2007).
≈ marks a conversion by molar mass, not a printed value.

Test system: up to 32 different microorganisms
Assay: in vitro antibacterial activity (MIC), agar dilution on Brain Heart Infusion (BHI) agar with Steers replicator
Assay type: cell-based
Details: unit assumed
Method in brief: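 Agar dilution, 12 plates/compound; inoc 1:100 (1:10 Micrococcus, Streptococcus); 35°-37° C, 20–24 h. Erythromycin A reference plate plus drug-free growth controls at start and end. Endpoint = no growth/slight haze/sparse colonies.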

[1] = Candida albicans CCH 442 (code TT)
[2] = Enterococcus faecism ATCC 8043 (code II)
[3] = Escherichia coli DC-2 (code SS)
[4] = Escherichia coli JUHL (code QQ)
[5] = Micrococcus luteus ATCC 4698 (code PP)
[6] = Micrococcus luteus ATCC 9341 (code OO)
[7] = Mycobacterium smegmatis ATCC 114 (code UU)
[8] = Nocardia Asteroides ATCC9970 (code VV)
[9] = Staphylococcus aureus 1775 (code GG)
[10] = Staphylococcus aureus A5177 (code BB)
[11] = Staphylococcus aureus A-5278 (code CC)
[12] = Staphylococcus aureus ATCC 6538P (code AA)
[13] = Staphylococcus aureus CMX 553 (code FF)
[14] = Staphylococcus aureus CMX 642A (code DD)
[15] = Staphylococcus aureus NCTC10649M (code EE)
[16] = Staphylococcus epidermidis 3519 (code HH)
[17] = Streptococcus agalactiae CMX 508 (code KK)
[18] = Streptococcus bovis A-5169 (code JJ)
[19] = Streptococcus pyogenes 930 (code MM)
[20] = Streptococcus pyogenes EES61 (code LL)
[21] = Streptococcus pyogenes PIU 2548 (code NN)

Compound: CCC1OC(=O)C(C)C(=O)C(C)C(OC2OC(C)CC(N(C)C)C2O)C(C)(OCC(O)c2ccccc2)CC(C)C(=O)C(C)C2NC(=O)OC12C (single isomer, unassigned) [Example 261A]
- MIC (organism code AA): 6.2 µg/mL (≈ 8.62 µM)
- MIC (organism code BB): 6.2 µg/mL (≈ 8.62 µM)
- MIC (organism code CC): > 100 µg/mL
- MIC (organism code DD): 12.5 µg/mL (≈ 17.4 µM)
- MIC (organism code EE): 12.5 µg/mL (≈ 17.4 µM)
- MIC (organism code FF): 12.5 µg/mL (≈ 17.4 µM)
- MIC (organism code GG): > 100 µg/mL
- MIC (organism code HH): 6.2 µg/mL (≈ 8.62 µM)
- MIC (organism code II): 1.56 µg/mL (≈ 2.17 µM)
- MIC (organism code JJ): 0.39 µg/mL (≈ 0.543 µM)
- MIC (organism code KK): 0.39 µg/mL (≈ 0.543 µM)
- MIC (organism code LL): 0.39 µg/mL (≈ 0.543 µM)
- MIC (organism code MM): > 100 µg/mL
- MIC (organism code NN): 1.56 µg/mL (≈ 2.17 µM)
- MIC (organism code OO): 0.78 µg/mL (≈ 1.09 µM)
- MIC (organism code PP): 3.1 µg/mL (≈ 4.31 µM)
- MIC (organism code QQ): > 100 µg/mL
- MIC (organism code RR): 6.2 µg/mL (≈ 8.62 µM)
- MIC (organism code SS): > 100 µg/mL
- MIC (organism code TT): > 100 µg/mL
- MIC (organism code UU): 25 µg/mL (≈ 34.8 µM)
- MIC (organism code VV): 6.2 µg/mL (≈ 8.62 µM)
- MIC (organism code WW): 64 µg/mL (≈ 89 µM)
- MIC (organism code XX): 1 µg/mL (≈ 1.39 µM)
- MIC (organism code YY): 1 µg/mL (≈ 1.39 µM)
- MIC (organism code ZZ): > 128 µg/mL
- MIC (organism code ZZA): 2 µg/mL (≈ 2.78 µM)

Compound: CCC1OC(=O)C(C)C(=O)C(C)C(OC2OC(C)CC(N(C)C)C2O)C(C)(OCC=Cc2ccc3ncccc3c2)CC(C)C(=O)C(C)C2NC(=O)OC12C (stereo not drawn) [Example 194, R is —CH2CH═CH-(6-quinolyl)]
- MIC [1]: > 100 µg/mL
- MIC [2]: 0.02 µg/mL (≈ 0.0261 µM)
- MIC [3]: 100 µg/mL (≈ 131 µM)
- MIC [4]: 50 µg/mL (≈ 65.3 µM)
- MIC (Escherichia coli SS (code RR)): 0.39 µg/mL (≈ 0.509 µM)
- MIC [5]: 0.1 µg/mL (≈ 0.131 µM)
- MIC [6]: 0.01 µg/mL (≈ 0.0131 µM)
- MIC [7]: 0.78 µg/mL (≈ 1.02 µM)
- MIC [8]: ≤ 0.005 µg/mL
- MIC [9]: > 100 µg/mL
- MIC [10]: 0.05 µg/mL (≈ 0.0653 µM)
- MIC [11]: > 100 µg/mL
- MIC [12]: 0.05 µg/mL (≈ 0.0653 µM)
- MIC [13]: 0.05 µg/mL (≈ 0.0653 µM)
- MIC [14]: 0.05 µg/mL (≈ 0.0653 µM)
- MIC [15]: 0.1 µg/mL (≈ 0.131 µM)
- MIC [16]: 0.05 µg/mL (≈ 0.0653 µM)
- MIC [17]: 0.01 µg/mL (≈ 0.0131 µM)
- MIC [18]: ≤ 0.005 µg/mL
- MIC [19]: 0.78 µg/mL (≈ 1.02 µM)
- MIC [20]: 0.01 µg/mL (≈ 0.0131 µM)
- MIC [21]: 0.05 µg/mL (≈ 0.0653 µM)

Compound: CCC1OC(=O)C(C)C(=O)C(C)C(OC2OC(C)CC(N(C)C)C2O)C(C)(OCC=Cc2cnc3c([N+](=O)[O-])cccc3c2)CC(C)C(=O)C(C)C2NC(=O)OC12C (stereo not drawn) [Example 211, R is —CH2CH═CH-(8-nitro-3-quinolyl)]
- MIC (organism code AA): 0.05 µg/mL (≈ 0.0617 µM)
- MIC (organism code BB): 0.05 µg/mL (≈ 0.0617 µM)
- MIC (organism code CC): > 100 µg/mL
- MIC (organism code DD): 0.1 µg/mL (≈ 0.123 µM)
- MIC (organism code EE): 0.1 µg/mL (≈ 0.123 µM)
- MIC (organism code FF): 0.1 µg/mL (≈ 0.123 µM)
- MIC (organism code GG): > 100 µg/mL
- MIC (organism code HH): 0.05 µg/mL (≈ 0.0617 µM)
- MIC (organism code II): 0.01 µg/mL (≈ 0.0123 µM)
- MIC (organism code JJ): 0.01 µg/mL (≈ 0.0123 µM)
- MIC (organism code KK): 0.01 µg/mL (≈ 0.0123 µM)
- MIC (organism code LL): 0.01 µg/mL (≈ 0.0123 µM)
- MIC (organism code MM): 3.1 µg/mL (≈ 3.82 µM)
- MIC (organism code NN): 0.1 µg/mL (≈ 0.123 µM)
- MIC (organism code OO): 0.01 µg/mL (≈ 0.0123 µM)
- MIC (organism code PP): 0.1 µg/mL (≈ 0.123 µM)
- MIC (organism code QQ): 25 µg/mL (≈ 30.8 µM)
- MIC (organism code RR): 0.2 µg/mL (≈ 0.247 µM)
- MIC (organism code SS): 50 µg/mL (≈ 61.7 µM)
- MIC (organism code TT): > 100 µg/mL
- MIC (organism code UU): 0.39 µg/mL (≈ 0.481 µM)
- MIC (organism code VV): 0.05 µg/mL (≈ 0.0617 µM)
- MIC (organism code WW): 2 µg/mL (≈ 2.47 µM)
- MIC (organism code XX): ≤ 0.004 µg/mL
- MIC (organism code YY): ≤ 0.004 µg/mL
- MIC (organism code ZZ): 16 µg/mL (≈ 19.7 µM)
- MIC (organism code ZZA): 0.25 µg/mL (≈ 0.308 µM)

Compound: CCC1OC(=O)C(C)C(=O)C(C)C(OC2OC(C)CC(N(C)C)C2O)C(C)(OCC=Cc2ccc3[nH]c4ccccc4c3c2)CC(C)C(=O)C(C)C2NC(=O)OC12C (stereo not drawn) [Example 204, R is —CH2CH═CH-(3-carbazolyl)]
- MIC (organism code AA): 0.1 µg/mL (≈ 0.124 µM)
- MIC (organism code BB): 0.1 µg/mL (≈ 0.124 µM)
- MIC (organism code CC): > 100 µg/mL
- MIC (organism code DD): 0.1 µg/mL (≈ 0.124 µM)
- MIC (organism code EE): 0.1 µg/mL (≈ 0.124 µM)
- MIC (organism code FF): 0.1 µg/mL (≈ 0.124 µM)
- MIC (organism code GG): > 100 µg/mL
- MIC (organism code HH): 0.1 µg/mL (≈ 0.124 µM)
- MIC (organism code II): 0.05 µg/mL (≈ 0.0622 µM)
- MIC (organism code JJ): 0.01 µg/mL (≈ 0.0124 µM)
- MIC (organism code KK): 0.01 µg/mL (≈ 0.0124 µM)
- MIC (organism code LL): 0.01 µg/mL (≈ 0.0124 µM)
- MIC (organism code MM): 3.1 µg/mL (≈ 3.86 µM)
- MIC (organism code NN): 0.2 µg/mL (≈ 0.249 µM)
- MIC (organism code OO): 0.02 µg/mL (≈ 0.0249 µM)
- MIC (organism code PP): 0.1 µg/mL (≈ 0.124 µM)
- MIC (organism code QQ): > 100 µg/mL
- MIC (organism code RR): 0.78 µg/mL (≈ 0.97 µM)
- MIC (organism code SS): > 100 µg/mL
- MIC (organism code TT): > 100 µg/mL
- MIC (organism code UU): 0.78 µg/mL (≈ 0.97 µM)
- MIC (organism code VV): 0.1 µg/mL (≈ 0.124 µM)
- MIC (organism code WW): 4 µg/mL (≈ 4.98 µM)
- MIC (organism code XX): 0.06 µg/mL (≈ 0.0746 µM)
- MIC (organism code YY): 0.06 µg/mL (≈ 0.0746 µM)
- MIC (organism code ZZ): 8 µg/mL (≈ 9.95 µM)
- MIC (organism code ZZA): 0.5 µg/mL (≈ 0.622 µM)

Compound: CCC1OC(=O)C(C)C(=O)C(C)C(OC2OC(C)CC(N(C)C)C2O)C(C)(OCC=Cc2ccc(F)c3ccccc23)CC(C)C(=O)C(C)C2NC(=O)OC12C (stereo not drawn) [Example 279, Compound of Formula (IX): L is CO, T is NH2, R is —CH2CH═CH-(4-fluoronaphthyl)]
- MIC (organism code AA): 0.39 µg/mL
- MIC (organism code BB): 0.39 µg/mL
- MIC (organism code CC): 50 µg/mL
- MIC (organism code DD): 0.78 µg/mL
- MIC (organism code EE): 0.39 µg/mL
- MIC (organism code FF): 0.39 µg/mL
- MIC (organism code GG): 50 µg/mL
- MIC (organism code HH): 0.39 µg/mL
- MIC (organism code II): 0.2 µg/mL
- MIC (organism code JJ): 0.05 µg/mL
- MIC (organism code KK): 0.02 µg/mL
- MIC (organism code MM): 25 µg/mL
- MIC (organism code NN): 0.39 µg/mL
- MIC (organism code OO): 0.05 µg/mL
- MIC (organism code PP): 0.39 µg/mL
- MIC (organism code QQ): > 100 µg/mL
- MIC (organism code RR): 1.56 µg/mL
- MIC (organism code SS): > 100 µg/mL
- MIC (organism code TT): > 100 µg/mL
- MIC (organism code UU): 0.78 µg/mL
- MIC (organism code VV): 0.78 µg/mL
- MIC (organism code WW): 8 µg/mL
- MIC (organism code XX): 0.03 µg/mL
- MIC (organism code YY): 0.03 µg/mL
- MIC (organism code ZZ): 32 µg/mL
- MIC (organism code ZZA): 0.5 µg/mL

Compound: CCC1OC(=O)C(C)C(=O)C(C)C(OC2OC(C)CC(N(C)C)C2O)C(C)(OCC=Cc2cnc3ccccc3c2)CC(C)C(=O)C(C)C2N(CC=Cc3cnc4ccccc4c3)C(=O)OC12C (stereo not drawn) [Example 184, Compound of Formula (IX): L is CO, T is T is N (CH2CH═CH-(3-quinolyl)), R is —CH2CH═CH-(3-quinolyl)]
- MIC [1]: > 100 µg/mL
- MIC [2]: 0.2 µg/mL
- MIC [3]: > 100 µg/mL
- MIC [4]: > 100 µg/mL
- MIC (Escherichia coli SS (code RR)): 12.5 µg/mL
- MIC (Haemophilis influenzae DILL AMP R (code WW)): > 128 µg/mL
- MIC [5]: 0.78 µg/mL
- MIC [6]: 0.39 µg/mL
- MIC [7]: 6.2 µg/mL
- MIC [8]: 3.1 µg/mL
- MIC [9]: > 100 µg/mL
- MIC [10]: 1.56 µg/mL
- MIC [11]: > 100 µg/mL
- MIC [12]: 3.1 µg/mL
- MIC [13]: 1.56 µg/mL
- MIC [14]: 3.1 µg/mL
- MIC [15]: 3.1 µg/mL
- MIC [16]: 3.1 µg/mL
- MIC (Streptococcus Pneumonia 5649 (code ZZA)): 2 µg/mL
- MIC (Streptococcus Pneumonia 5979 (code ZZ)): 32 µg/mL
- MIC (Streptococcus Pneumonia ATCC6303 (code XX)): 1 µg/mL
- MIC (Streptococcus Pneumonia GYR 1171 (code YY)): 0.5 µg/mL
- MIC [17]: 0.1 µg/mL
- MIC [18]: 0.1 µg/mL
- MIC [19]: 25 µg/mL
- MIC [20]: 0.1 µg/mL
- MIC [21]: 1.56 µg/mL
